Measured values: article PMC9132363 (Journal of Medicinal Chemistry, 2022)

Experiments:
sALS lymphoblasts = test: NRF2 pathway in sALS lymphoblasts; format: cell-based, human; details: 20 μM, 24 h, vs untreated sALS lymphoblasts
Source text: (§1) Peripheral blood samples of all the individuals enrolled in this study were collected after written informed consent of the patients or their relatives (demographic information is presented in Table 9) to establish the lymphoblastoid cell lines (LCLs), by infecting peripheral blood lymphocytes with the Epstein–Barr virus (EBV), as previously described.[68] Participants or their relatives gave written informed consent. This study was approved by the Hospital Doce de Octubre and the Spanish Council of Higher Research Institutional Review Boards. All patients were diagnosed by applying the revised El Escorial criteria.[69] […] Genetic testing for SOD1, TARDBP, FUS, and C9ORF72 was performed in all cases.
(§2) LCLs were grown in suspensions in T flasks, in an RPMI-1640 medium containing 2 mM L-glutamine, 100 μg/mL streptomycin/penicillin, and 10% (v/v) fetal bovine serum (FBS) and maintained in a humidified 5% CO2 incubator at 37 °C.
(§3) Whole cell lysates were prepared in RIPA-buffer (25 mM Tris-HCl, pH 7.6, 150 mM NaCl, 1 mM EGTA, 1% Igepal, 1% sodium deoxycholate, 0.1% SDS, 1 mM PSMF, 1 mM Na3VO4, 1 mM NaF, 1 μg/mL aprotinin, 1 μg/mL leupeptin, and 1 μg/mL pepstatin). […] Immunoblots were analyzed as described previously.[48] […]
(§4) Total RNA extraction, reverse transcription, and quantitative polymerase chain reaction (PCR) were done as detailed in previous articles.[72] […]

[1] = molecular target: T1, human serum albumin (HSA) (Homo sapiens, UniProt P02768); test: biochemical
Description: (§6) After each addition, the mixture was incubated at rt for 5 min, and then, the emission fluorescence spectra of HAS (λ = 280 nm) were measured using a Fluorometer Max-4P (Horiba Jobin Yvon). The data obtained were further processed using the Stern–Volmer and Scatchard models in GraphPad Prism 8.0 software.

[2] = test system: HMOX1/HO-1 and NQO1 in SH-SY5Y cells; test: NRF2 signature (qRT-PCR and immunoblot) in SH-SY5Y cells; format: cell-based
Description: Whole cell lysates were prepared in RIPA-buffer (25 mM Tris-HCl, pH 7.6, 150 mM NaCl, 1 mM EGTA, 1% Igepal, 1% sodium deoxycholate, 0.1% SDS, 1 mM PSMF, 1 mM Na3VO4, 1 mM NaF, 1 μg/mL aprotinin, 1 μg/mL leupeptin, and 1 μg/mL pepstatin). Whole cell lysates, cytosolic and nuclear fractions containing 25 μg of whole proteins from SH-SY5Y, or lymphoblast-treated cells were loaded for SDS-PAGE electrophoresis. Immunoblots were analyzed as described previously.[48] The primary antibodies used are described in Supporting Information Table S4.
(§5) Total RNA extraction, reverse transcription, and quantitative polymerase chain reaction (PCR) were done as detailed in previous articles.[72] Primer sequences are shown in Supporting Information Table S5. Data analysis was based on the ΔΔCT method with normalization of the raw data to housekeeping genes (Applied Biosystems). All PCRs were performed in triplicates.

[3] = molecular target: NRF2–KEAP1 protein–protein interaction (Homo sapiens, UniProt Q14145); test: Fluorescence polarization (FP) assay; format: binding
[4] = Liver microsome stability assay; details: human, pooled human liver microsomes, pH 7.4
Description: This assay provides information on the metabolic stability of early drug discovery compounds based on liver microsomes. […] The reaction was initiated by adding NADPH (1 mM final concentration). Aliquots of 150 μL were collected at defined time points (0, 5, 15, 30, and 60 min) and added to cold acetonitrile (150 μL) containing an internal standard (5 μg/mL warfarin) to stop the reaction and precipitate the protein. […] Data were log transformed and represented as half-life. All experiments were conducted in duplicates.

[5] = test system: TDP-43 in lymphoblasts from ALS patients; test: TDP-43 phosphorylation and expression in lymphoblasts (immunoblot); format: cell-based, human; details: 20 µM, 24 hours
Description: Figure S1. Lack of effect of compound 1d against aberrant TDP-43 phosphorylation in sporadic ALS and […]
Representative immunoblot showing the phosphorylation status of TDP-43 in immortalized lymphocytes from control and sporadic ALS individuals. Cells were seeded at an initial density of 1 x 106 x ml-1 in the absence or presence of compound 1d (20 µM). 24 hours after compound addition, cells were harvested and processed for Western blotting analysis. The plot in the left panel (a) represents the quantification of the bands of 43 KD of pTDP-43 normalized by total-TDP-43. The densitometric analyses represent the mean ± SEM of different observations carried […]
43 expression (b) in lymphoblasts from ALS patients.
(1 picture or pasted object on this page, not shown here)

[6] = molecular target: T1, human serum albumin (HSA); test: Serum albumin binding by fluorescence quenching; details: HSA 2 μM, λex 280 nm, λem 337 nm
Description: as §6

SOD1-ALS lymphoblasts = test: NRF2 pathway in SOD1-ALS lymphoblasts; format: cell-based, human; details: 20 μM, 24 h
Source text: as §1, §2, §3, §4

NRF2 in SH-SY5Y cells = test: Subcellular fractionation and immunoblot of NRF2; format: cell-based; details: 20 μM, 1, 2 and 4 h
Description: SH-SY5Y cells were seeded in p100 plates (1 × 10^6 cells/plate) and treated with 20 μM compound 1d. Cytosolic and nuclear fractions were prepared as described previously.[71] Briefly, cells were washed with cold PBS and harvested by centrifugation at 1100 rpm for 10 min. The cell pellet was resuspended in 3 pellet volumes of cold buffer A (20 mm HEPES, pH 7.0, 0.15 mm EDTA, 0.015 mm EGTA, 10 mm KCl, 1% Nonidet P-40, 1 mm phenylmethylsulfonyl fluoride, 20 mm NaF, 1 mm sodium pyrophosphate, 1 mm sodium orthovanadate, and 1 μg/mL leupeptin) and incubated in ice for 30 min. Then, the homogenate was centrifuged at 500g for 5 min. The supernatants were taken as the cytosolic fraction. The nuclear pellet was resuspended in 5 volumes of cold buffer B (10 mm HEPES, pH 8.0, 0.1 mm EDTA, 0.1 mm NaCl, 25% glycerol, 1 mm phenylmethylsulfonyl fluoride, 20 mm NaF, 1 mm sodium pyrophosphate, 1 mm sodium orthovanadate, and 1 μg/mL leupeptin). After centrifugation in the same conditions indicated above, the nuclei were resuspended in loading buffer containing 0.5% SDS. […]
as §3

control lymphoblasts = test: NRF2 pathway in control lymphoblasts; format: cell-based, human; details: 20 μM, 24 h
Source text: as §1, §2, §3, §4

Keap1–/– MEFs = test: qRT-PCR of NRF2 target genes in KEAP1-deficient MEFs; format: cell-based, mouse; details: 20 μM, 4, 8 and 24 h
Description: Human embryonic kidney (HEK) 293T cells were grown in Dulbecco’s modified Eagle’s medium (DMEM) supplemented with 10% fetal bovine serum and 80 μg/mL gentamycin. Transient transfections were performed with calcium phosphate using reagents from Sigma. The Keap1^–/– mouse embryo fibroblasts (MEFs) and their corresponding wild-type Keap1^+/+ MEFs were kindly provided by Dr. Ken Itoh (Department of Stress Response Science, Center for Advanced Medical Science, Hirosaki University, Japan). MEFs were grown in DMEM supplemented with 10% fetal bovine serum, 1% penicillin/streptomycin, and 2 mm L-glutamine. SH-SY5Y cells were grown in DMEM and Ham’s F12 supplemented with 10% fetal bovine serum (FBS) and 1% penicillin/streptomycin. The medium was changed to serum-free DMEM without antibiotics 16 h before treatments. DMF (cat. no. 242926, Sigma-Aldrich) was used at 20 μM for 16 h.
as §5

NRF2–KEAP1 protein–protein interaction, sequence (Q14145 whole entry): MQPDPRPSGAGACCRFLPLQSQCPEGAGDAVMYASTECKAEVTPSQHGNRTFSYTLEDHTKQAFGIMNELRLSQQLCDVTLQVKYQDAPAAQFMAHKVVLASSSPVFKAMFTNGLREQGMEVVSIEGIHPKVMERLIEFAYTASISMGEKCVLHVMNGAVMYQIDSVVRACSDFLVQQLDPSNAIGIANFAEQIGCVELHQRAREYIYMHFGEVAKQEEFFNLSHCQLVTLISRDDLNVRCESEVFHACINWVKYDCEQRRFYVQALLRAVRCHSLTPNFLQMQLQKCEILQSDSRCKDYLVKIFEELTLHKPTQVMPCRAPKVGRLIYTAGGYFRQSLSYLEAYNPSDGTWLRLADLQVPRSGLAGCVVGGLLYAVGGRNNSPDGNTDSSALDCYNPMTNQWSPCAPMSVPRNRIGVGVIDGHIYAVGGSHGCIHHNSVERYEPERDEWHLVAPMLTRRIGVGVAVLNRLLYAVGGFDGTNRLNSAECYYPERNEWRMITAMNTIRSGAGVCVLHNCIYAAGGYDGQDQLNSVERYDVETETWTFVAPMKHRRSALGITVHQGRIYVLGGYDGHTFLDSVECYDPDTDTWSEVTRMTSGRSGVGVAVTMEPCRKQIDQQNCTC
T1 sequence (P02768 25-609): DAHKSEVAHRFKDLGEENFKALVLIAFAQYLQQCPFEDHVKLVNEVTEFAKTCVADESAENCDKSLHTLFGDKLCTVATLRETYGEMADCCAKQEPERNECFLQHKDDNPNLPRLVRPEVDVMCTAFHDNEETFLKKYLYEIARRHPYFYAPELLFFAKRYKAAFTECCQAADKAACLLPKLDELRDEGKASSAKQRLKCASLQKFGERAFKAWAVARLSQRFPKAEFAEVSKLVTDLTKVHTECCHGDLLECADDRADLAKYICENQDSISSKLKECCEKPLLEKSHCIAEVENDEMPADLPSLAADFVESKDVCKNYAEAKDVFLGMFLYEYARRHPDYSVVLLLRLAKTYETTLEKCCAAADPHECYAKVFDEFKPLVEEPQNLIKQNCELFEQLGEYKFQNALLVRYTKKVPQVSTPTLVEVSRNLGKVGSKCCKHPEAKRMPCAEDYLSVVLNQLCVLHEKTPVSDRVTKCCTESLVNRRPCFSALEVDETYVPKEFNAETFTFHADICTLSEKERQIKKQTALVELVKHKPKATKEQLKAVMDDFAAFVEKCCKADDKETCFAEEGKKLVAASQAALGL

O=C(CCc1ccc(O)c(O)c1)N1CCCN(S(=O)(=O)c2cccc3cnccc23)CC1 [Compound 1d, 3-(3,4-Dihydroxyphenyl)-1-(4-(isoquinolin-5-ylsulfonyl)-1,4-diazepan-1-yl)propan-1-one]
NRF2 and activity of its signaling pathway (sALS lymphoblasts): did not produce a significant increase | Kd [1]: 1.26 µM | mRNA levels of HMOX1 and NQO1 ([2]; 20 μM, 4, 8 and 24 h): increased the mRNA levels | protein levels of HO-1 and NQO1 ([2]; 20 μM, maximum after 24 h): increase in the protein levels | inhibition at 100 µM ([3]; 100 μM, read-out: FP % inhibition (± S.E.M.)): < 10% | inhibition of the NRF2–KEAP1 interaction ([3]; FP and DSF, 100 μM or lower concentrations): not able to inhibit | half-life at 1 h, 8 µM [4]: 35.7 min | ability to reduce TDP-43 expression [5]: negative results | ability to reduce aberrant TDP-43 phosphorylation [5]: negative results | Stern–Volmer quenching constant KSV [6]: 1.68 × 10^5 L mol^–1 | HMOX1 and NQO1 levels (mRNA and protein) (SOD1-ALS lymphoblasts): capable of inducing HMOX1 and NQO1 levels in a very significant way | subcellular distribution of NRF2 (NRF2 in SH-SY5Y cells): induced a significant accumulation of NRF2 in the nucleus | NEF2L2 mRNA levels (control lymphoblasts): did not produce changes | levels of the NRF2 protein (control lymphoblasts): significantly increased | expression of HMOX1 (Keap1–/– MEFs): to a lesser extent than in the wild-type cells | expression of NQO1 (Keap1–/– MEFs): not capable of inducing
